The target of one experiment is cyclo-oxygenase. The experiment in a line: inhibition of cyclo-oxygenase, enzyme assay according to the method of Blackwell and Flower. Format: biochemical.
A further experiment has as its target lipoxygenase. The experiment in a line: inhibition of lipoxygenase, enzyme assay according to the method of Blackwell and Flower. The experiment is classed as biochemical.

Sequence of cyclo-oxygenase (P23219 24-599): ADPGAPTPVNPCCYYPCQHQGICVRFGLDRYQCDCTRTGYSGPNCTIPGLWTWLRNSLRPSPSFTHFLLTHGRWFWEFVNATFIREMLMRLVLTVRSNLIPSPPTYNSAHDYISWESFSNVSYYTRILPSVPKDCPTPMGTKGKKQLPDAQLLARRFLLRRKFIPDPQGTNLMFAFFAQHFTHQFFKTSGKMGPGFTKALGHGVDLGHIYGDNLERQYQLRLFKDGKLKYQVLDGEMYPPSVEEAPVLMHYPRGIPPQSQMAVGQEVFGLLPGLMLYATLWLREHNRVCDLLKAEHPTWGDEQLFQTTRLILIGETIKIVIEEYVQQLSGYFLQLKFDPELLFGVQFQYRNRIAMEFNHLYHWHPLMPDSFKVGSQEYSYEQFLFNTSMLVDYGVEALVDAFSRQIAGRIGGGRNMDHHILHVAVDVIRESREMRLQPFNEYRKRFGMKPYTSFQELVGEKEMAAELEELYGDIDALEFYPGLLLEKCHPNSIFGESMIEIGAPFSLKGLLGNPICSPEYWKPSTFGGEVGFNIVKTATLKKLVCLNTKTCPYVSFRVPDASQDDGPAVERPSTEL

As to `O=C(O)CCCCOc1cccc(O)c1C=NC1=NN(c2cccc(C(F)(F)F)c2)CC1` [Example 1, 3-(2-4'-carboxybutoxy-6-hydroxybenzylideneamino)-1-(3-trifluoromethylphenyl)-2-pyrazoline], the IC50 at cyclo-oxygenase was less than 3 µM; on lipoxygenase it was 10 to 20 µM.

Turning to `FC(F)(F)c1cccc(N2CCC(N=Cc3ccccn3)=N2)c1` [Example 2, 3-(2-pyridylmethyleneamino)-1-(3-trifluoromethylphenyl)-2-pyrazoline], the IC50 is 1 µM against cyclo-oxygenase and approximately 3 µM against lipoxygenase.

Take `FC(F)(F)c1cccc(N2CCC(N=Cc3ccc[nH]3)=N2)c1` [Example 3, 3-(2-pyrrolylmethyleneamino)-1-(3-trifluoromethylphenyl)-2-pyrazoline]: the IC50 was less than 1 µM on cyclo-oxygenase and 1 µM on lipoxygenase.

Consider `Oc1ccccc1C=NC1=NN(c2cccc(C(F)(F)F)c2)CC1` [Example 4, 3-salicylideneamino-1-(3-trifluoromethylphenyl)-2-pyrazoline], for which the IC50 against cyclo-oxygenase and on lipoxygenase was approximately 3 µM in each case.

Regarding `FC(F)(F)c1cccc(N2CCC(N=Cc3cccc4ccccc34)=N2)c1` [Example 7, 3-(1-naphthylmethyleneamino)-1-(3-trifluoromethylphenyl)-2-pyrazoline], the IC50 against cyclo-oxygenase was 10 µM; against lipoxygenase, 6 µM.

Take `Cc1ccc(C=NC2=NN(c3ccc4ccccc4c3)CC2)cc1` [Example 8, 3-(4-methylbenzylideneamino)-1-(2-naphthyl)-2-pyrazoline]: the IC50 on cyclo-oxygenase was 5 µM; against lipoxygenase it was 12 µM.

Regarding `Oc1ccccc1C=NC1=NN(c2ccc(Br)c(C(F)(F)F)c2)CC1` [Example 11, 1-(4-bromo-3-trifluoromethylphenyl)-3-(2-hydroxybenzylideneamino)-2-pyrazoline], the results for the IC50 against cyclo-oxygenase and against lipoxygenase were approximately 5 µM and more than 10 µM, respectively.

Consider `COc1ccc(C=NC2=NN(c3ccc(Br)c(C(F)(F)F)c3)CC2)cc1` [Example 12, 1-(4-bromo-3-trifluoromethylphenyl)-3-(4-methoxybenzylideneamino)-2-pyrazoline], for which the IC50 against cyclo-oxygenase and against lipoxygenase was approximately 1 µM in each case.

As for `CC(C)(C)c1cccc(N2CCC(N)=N2)c1` [Example 13, 3-Amino-1-(3-t-butylphenyl)-2-pyrazoline], the IC50 at cyclo-oxygenase and on lipoxygenase was less than 1 µM in each case.

Take `FC(F)(F)c1cccc(N2CCC(N=Cc3ccccc3)=N2)c1` [Example 15, 3-Benzylideneamino-1-(3-trifluoromethylphenyl)-2-pyrazoline]: the IC50 is approximately 3 µM against cyclo-oxygenase and less than 1 µM against lipoxygenase.

On to `CC1CN(c2cccc(C(F)(F)F)c2)N=C1N=Cc1ccccc1O` (stereo not shown) [Example 18, 4-Methyl-3-salicylideneamino-1-(3-trifluoromethylphenyl)-2-pyrazoline], for which the IC50 at cyclo-oxygenase and at lipoxygenase was approximately 1 µM throughout.

A word on the IC50: it is the concentration that inhibits the measured activity by half. Read a high IC50 as weaker potency.

Source of the values: patent publication US4572913A, “Use of 3-(arylmethyleneamino)-1-aryl-2-pyrazolines in the prophylaxis and treatment of inflammation, pain, pyresis, and asthma” (Burroughs Wellcome Co., priority 1980, dated 1986).
